# Data from ChEMBL document CHEMBL3045446, “In vitro antimicrobial and antimycobacterial activity of some chalcones and their derivatives” (2013).
# How the values were obtained:
# Format in all cases: functional
# [1] = system: Mycobacterium tuberculosis; experiment: Antituberculosis activity against Mycobacterium tuberculosis H37Rv assessed as growth inhibition after 12 to 28 days by L-J MIC method; details: for MIC: Mycobacterium tuberculosis, H37Rv
# Candida albicans [2] = experiment: Antimicrobial activity against Candida albicans MTCC 183 assessed as growth inhibition after 48 hr by agar streak dilution method; details: MTCC 183, 48 h
# Aspergillus clavatus [3] = experiment: Antimicrobial activity against Aspergillus clavatus MTCC 1323 assessed as growth inhibition after 48 hr by agar streak dilution method; details: MTCC 1323, 48 h
# Aspergillus fumigatus [4] = experiment: Antimicrobial activity against Aspergillus fumigatus MTCC 343 assessed as growth inhibition after 48 hr by agar streak dilution method; details: MTCC 343, 48 h
# Aspergillus niger [5] = experiment: Antimicrobial activity against Aspergillus niger MTCC 282 assessed as growth inhibition after 48 hr by agar streak dilution method; details: MTCC 282, 48 h
# Shigella flexneri [6] = experiment: Antimicrobial activity against Shigella flexneri MTCC1457 assessed as growth inhibition after 24 hr by agar streak dilution method; details: MTCC1457, 24 h
# Proteus vulgaris [7] = experiment: Antimicrobial activity against Proteus vulgaris MTCC 1771 assessed as growth inhibition after 24 hr by agar streak dilution method; details: MTCC 1771, 24 h
# Salmonella typhi [8] = experiment: Antimicrobial activity against Salmonella enterica subsp. enterica serovar Typhi MTCC 733 assessed as growth inhibition after 24 hr by agar streak dilution method; details: MTCC 733, 24 h
# Klebsiella pneumoniae [9] = experiment: Antimicrobial activity against Klebsiella pneumoniae MTCC 109 assessed as growth inhibition after 24 hr by agar streak dilution method; details: MTCC 109, 24 h
# Pseudomonas aeruginosa [10] = experiment: Antimicrobial activity against Pseudomonas aeruginosa MTCC 741 assessed as growth inhibition after 24 hr by agar streak dilution method; details: MTCC 741, 24 h
# Escherichia coli [11] = experiment: Antimicrobial activity against Escherichia coli MTCC 739 assessed as growth inhibition after 24 hr by agar streak dilution method; details: MTCC 739, 24 h
# Bacillus cereus [12] = experiment: Antimicrobial activity against Bacillus cereus MTCC 430 assessed as growth inhibition after 24 hr by agar streak dilution method; details: MTCC 430, 24 h
# Staphylococcus aureus [13] = experiment: Antimicrobial activity against Staphylococcus aureus MTCC 96 assessed as growth inhibition after 24 hr by agar streak dilution method; details: MTCC 96, 24 h
# Candida albicans [14] = experiment: Antimicrobial activity against Candida albicans MTCC 183 assessed as diameter of growth inhibition zone after 48 hr; also: test concentration or dose not given here
# Aspergillus clavatus [15] = experiment: Antimicrobial activity against Aspergillus clavatus MTCC 1323 assessed as diameter of growth inhibition zone after 48 hr; also: test concentration or dose not given here
# Aspergillus fumigatus [16] = experiment: Antimicrobial activity against Aspergillus fumigatus MTCC 343 assessed as diameter of growth inhibition zone after 48 hr; also: test concentration or dose not given here
# Aspergillus niger [17] = experiment: Antimicrobial activity against Aspergillus niger MTCC 282 assessed as diameter of growth inhibition zone after 48 hr; also: test concentration or dose not given here
# Shigella flexneri [18] = experiment: Antimicrobial activity against Shigella flexneri MTCC1457 assessed as diameter of growth inhibition zone after 24 hr
# Proteus vulgaris [19] = experiment: Antimicrobial activity against Proteus vulgaris MTCC 1771 assessed as diameter of growth inhibition zone after 24 hr
# Salmonella typhi [20] = experiment: Antimicrobial activity against Salmonella enterica subsp. enterica serovar Typhi MTCC 733 assessed as diameter of growth inhibition zone after 24 hr
# Klebsiella pneumoniae [21] = experiment: Antimicrobial activity against Klebsiella pneumoniae MTCC 109 assessed as diameter of growth inhibition zone after 24 hr; also: test concentration or dose not given here
# Pseudomonas aeruginosa [22] = experiment: Antimicrobial activity against Pseudomonas aeruginosa MTCC 741 assessed as diameter of growth inhibition zone after 24 hr
# Escherichia coli [23] = experiment: Antimicrobial activity against Escherichia coli MTCC 739 assessed as diameter of growth inhibition zone after 24 hr; also: test concentration or dose not given here
# Bacillus cereus [24] = experiment: Antimicrobial activity against Bacillus cereus MTCC 430 assessed as diameter of growth inhibition zone after 24 hr; also: test concentration or dose not given here
# Staphylococcus aureus [25] = experiment: Antimicrobial activity against Staphylococcus aureus MTCC 96 assessed as diameter of growth inhibition zone after 24 hr; also: test concentration or dose not given here
Compound,growth inhibition (GI) [1],MIC [1],MIC (Candida albicans [2]),MIC (Aspergillus clavatus [3]),MIC (Aspergillus fumigatus [4]),MIC (Aspergillus niger [5]),MIC (Shigella flexneri [6]),MIC (Proteus vulgaris [7]),MIC (Salmonella typhi [8]),MIC (Klebsiella pneumoniae [9]),MIC (Pseudomonas aeruginosa [10]),MIC (Escherichia coli [11]),MIC (Bacillus cereus [12]),MIC (Staphylococcus aureus [13]),diameter of the inhibition zone (DIZ) (Candida albicans [14]),diameter of the inhibition zone (DIZ) (Aspergillus clavatus [15]),diameter of the inhibition zone (DIZ) (Aspergillus fumigatus [16]),diameter of the inhibition zone (DIZ) (Aspergillus niger [17]),diameter of the inhibition zone (DIZ) (Shigella flexneri [18]),diameter of the inhibition zone (DIZ) (Proteus vulgaris [19]),also measured
Nc1nc(-c2ccc(Cl)cc2)cc(-c2ccc(Nc3cc(=O)oc4ccccc34)cc2)n1,97%,200 µg/mL,12.5 µg/mL,50 µg/mL,25 µg/mL,50 µg/mL,25 µg/mL,12.5 µg/mL,25 µg/mL,12.5 µg/mL,100 µg/mL,50 µg/mL,50 µg/mL,50 µg/mL,21 mm,17 mm,19 mm,17 mm,21 mm,23 mm,diameter of the inhibition zone (DIZ) (Salmonella typhi [20]): 20 mm; diameter of the inhibition zone (DIZ) (Klebsiella pneumoniae [21]): 22 mm; diameter of the inhibition zone (DIZ) (Pseudomonas aeruginosa [22]): 16 mm; diameter of the inhibition zone (DIZ) (Escherichia coli [23]): 18 mm; diameter of the inhibition zone (DIZ) (Bacillus cereus [24]): 19 mm; diameter of the inhibition zone (DIZ) (Staphylococcus aureus [25]): 20 mm
Nc1nc(-c2ccc(F)cc2)cc(-c2ccc(Nc3cc(=O)oc4ccccc34)cc2)n1,99%,62.5 µg/mL,25 µg/mL,6.25 µg/mL,6.25 µg/mL,12.5 µg/mL,12.5 µg/mL,6.25 µg/mL,12.5 µg/mL,3.12 µg/mL,12.5 µg/mL,6.25 µg/mL,12.5 µg/mL,12.5 µg/mL,20 mm,26 mm,27 mm,22 mm,21 mm,25 mm,diameter of the inhibition zone (DIZ) (Salmonella typhi [20]): 23 mm; diameter of the inhibition zone (DIZ) (Klebsiella pneumoniae [21]): 28 mm; diameter of the inhibition zone (DIZ) (Pseudomonas aeruginosa [22]): 24 mm; diameter of the inhibition zone (DIZ) (Escherichia coli [23]): 25 mm; diameter of the inhibition zone (DIZ) (Bacillus cereus [24]): 23 mm; diameter of the inhibition zone (DIZ) (Staphylococcus aureus [25]): 24 mm
CC(=O)N1N=C(c2ccc(Nc3cc(=O)oc4ccccc34)cc2)CC1c1ccccc1Br (stereo not drawn),98%,200 µg/mL,25 µg/mL,100 µg/mL,50 µg/mL,100 µg/mL,100 µg/mL,100 µg/mL,100 µg/mL,100 µg/mL,100 µg/mL,100 µg/mL,100 µg/mL,100 µg/mL,21 mm,14 mm,17 mm,15 mm,14 mm,15 mm,diameter of the inhibition zone (DIZ) (Salmonella typhi [20]): 15 mm; diameter of the inhibition zone (DIZ) (Klebsiella pneumoniae [21]): 16 mm; diameter of the inhibition zone (DIZ) (Pseudomonas aeruginosa [22]): 12 mm; diameter of the inhibition zone (DIZ) (Escherichia coli [23]): 14 mm; diameter of the inhibition zone (DIZ) (Bacillus cereus [24]): 14 mm; diameter of the inhibition zone (DIZ) (Staphylococcus aureus [25]): 16 mm
N#Cc1c(-c2ccccc2O)cc(-c2ccc(Nc3cc(=O)oc4ccccc34)cc2)nc1N,97%,25 µg/mL,25 µg/mL,6.25 µg/mL,6.25 µg/mL,12.5 µg/mL,12.5 µg/mL,12.5 µg/mL,6.25 µg/mL,3.12 µg/mL,12.5 µg/mL,12.5 µg/mL,12.5 µg/mL,12.5 µg/mL,24 mm,27 mm,25 mm,25 mm,21 mm,22 mm,diameter of the inhibition zone (DIZ) (Salmonella typhi [20]): 25 mm; diameter of the inhibition zone (DIZ) (Klebsiella pneumoniae [21]): 28 mm; diameter of the inhibition zone (DIZ) (Pseudomonas aeruginosa [22]): 24 mm; diameter of the inhibition zone (DIZ) (Escherichia coli [23]): 24 mm; diameter of the inhibition zone (DIZ) (Bacillus cereus [24]): 22 mm; diameter of the inhibition zone (DIZ) (Staphylococcus aureus [25]): 21 mm
Nc1nc(-c2ccc(Nc3cc(=O)oc4ccccc34)cc2)cc(-c2ccc([N+](=O)[O-])cc2)n1,96%,500 µg/mL,50 µg/mL,25 µg/mL,100 µg/mL,50 µg/mL,100 µg/mL,100 µg/mL,25 µg/mL,50 µg/mL,100 µg/mL,100 µg/mL,100 µg/mL,100 µg/mL,19 mm,20 mm,16 mm,17 mm,16 mm,14 mm,diameter of the inhibition zone (DIZ) (Salmonella typhi [20]): 21 mm; diameter of the inhibition zone (DIZ) (Klebsiella pneumoniae [21]): 18 mm; diameter of the inhibition zone (DIZ) (Pseudomonas aeruginosa [22]): 16 mm; diameter of the inhibition zone (DIZ) (Escherichia coli [23]): 17 mm; diameter of the inhibition zone (DIZ) (Bacillus cereus [24]): 16 mm; diameter of the inhibition zone (DIZ) (Staphylococcus aureus [25]): 15 mm
COc1ccc(C2CC(c3ccc(Nc4cc(=O)oc5ccccc45)cc3)=NN2C(C)=O)cc1 (stereo not drawn),99%,100 µg/mL,50 µg/mL,25 µg/mL,50 µg/mL,25 µg/mL,100 µg/mL,50 µg/mL,100 µg/mL,100 µg/mL,50 µg/mL,50 µg/mL,100 µg/mL,100 µg/mL,19 mm,20 mm,18 mm,21 mm,16 mm,20 mm,diameter of the inhibition zone (DIZ) (Salmonella typhi [20]): 17 mm; diameter of the inhibition zone (DIZ) (Klebsiella pneumoniae [21]): 17 mm; diameter of the inhibition zone (DIZ) (Pseudomonas aeruginosa [22]): 18 mm; diameter of the inhibition zone (DIZ) (Escherichia coli [23]): 19 mm; diameter of the inhibition zone (DIZ) (Bacillus cereus [24]): 15 mm; diameter of the inhibition zone (DIZ) (Staphylococcus aureus [25]): 16 mm
Nc1nc(-c2ccc(Nc3cc(=O)oc4ccccc34)cc2)cc(-c2ccccc2Br)n1,98%,100 µg/mL,25 µg/mL,50 µg/mL,50 µg/mL,50 µg/mL,50 µg/mL,100 µg/mL,50 µg/mL,50 µg/mL,100 µg/mL,100 µg/mL,100 µg/mL,100 µg/mL,23 mm,17 mm,19 mm,20 mm,19 mm,17 mm,diameter of the inhibition zone (DIZ) (Salmonella typhi [20]): 20 mm; diameter of the inhibition zone (DIZ) (Klebsiella pneumoniae [21]): 18 mm; diameter of the inhibition zone (DIZ) (Pseudomonas aeruginosa [22]): 15 mm; diameter of the inhibition zone (DIZ) (Escherichia coli [23]): 16 mm; diameter of the inhibition zone (DIZ) (Bacillus cereus [24]): 16 mm; diameter of the inhibition zone (DIZ) (Staphylococcus aureus [25]): 17 mm
Nc1nc(-c2ccc(Nc3cc(=O)oc4ccccc34)cc2)cc(-c2ccc(O)cc2O)n1,97%,200 µg/mL,25 µg/mL,6.25 µg/mL,12.5 µg/mL,12.5 µg/mL,12.5 µg/mL,3.12 µg/mL,12.5 µg/mL,6.25 µg/mL,12.5 µg/mL,12.5 µg/mL,12.5 µg/mL,12.5 µg/mL,21 mm,25 mm,25 mm,22 mm,23 mm,28 mm,diameter of the inhibition zone (DIZ) (Salmonella typhi [20]): 24 mm; diameter of the inhibition zone (DIZ) (Klebsiella pneumoniae [21]): 26 mm; diameter of the inhibition zone (DIZ) (Pseudomonas aeruginosa [22]): 23 mm; diameter of the inhibition zone (DIZ) (Escherichia coli [23]): 22 mm; diameter of the inhibition zone (DIZ) (Bacillus cereus [24]): 21 mm; diameter of the inhibition zone (DIZ) (Staphylococcus aureus [25]): 21 mm
